Results on two compounds are retold here after US9023789B2, “Amylin analogs and pharmaceutical compositions thereof” (Novo Nordisk A/S, priority 2012, dated 2015).

The structures appear in SMILES notation. Where two headings read alike, the source gives them in different places. Numbered stars: 1 amine (or outer) side, 2 acyl side, 3 side chain; on linkers, the order of the positions; unused ones are H or OH. Bridge positions count the residues as written; N and C are the ends. Peptide text beside a SMILES is read from it. * marks the point of attachment. C20 diacid = O=C(O)CCCCCCCCCCCCCCCCCCC(=O)*; γGlu = O=C(O)[C@H](CCC(=O)[*:2])N[*:1] Where only a bound is given, the exact number is not on record here.

Data set [1] in a line: ASSAY (III) ThT fibrillation assay for physical stability. It counts as physicochemical. The source says: Assay (III)—ThT Fibrillation Assays for the Assessment of Physical Stability of Protein Formulations Low physical stability of a polypeptide may lead to amyloid fibril formation, which is observed as well-ordered, thread-like macromolecular structures in the sample eventually resulting in gel formation. This has traditionally been measured by visual inspection of the sample. However, that kind of measurement is very subjective and depending on the observer. Therefore, the application of a small molecule indicator probe is much more advantageous. Thioflavin T (ThT) is such a probe and has a distinct fluorescence signature when binding to fibrils [Naiki et al. (1989) Anal. […] LeVine (1999) Methods. Enzymol. […], 274-284]. The time course for fibril formation can be described by a sigmoidal curve with the following expression [Nielsen et al. (2001) Biochemistry 40, 6036-6046]; […] Here, F is the ThT fluorescence at the time t. The constant t0 is the time needed to reach 50% of maximum fluorescence. […] Few of those intermediates nucleate to form a template onto which further intermediates may assembly and the fibrillation proceeds. The lag-time corresponds to the interval in which the critical mass of nucleus is built up and the apparent rate constant is the rate with which the fibril itself is formed. Sample Preparation Samples were prepared freshly before each assay. Each sample composition is described in each example. The pH of the sample was adjusted to the desired value using appropriate amounts of concentrated NaOH and HClO4 or HCl. Thioflavin T was added to the samples from a stock solution in H2O to a final concentration of 1 μM. Sample aliquots of 200 μl were placed in a 96 well microtiter plate (Packard OptiPlate™96, white polystyrene). Usually, four or eight replica of each sample (corresponding to one test condition) were placed in one column of wells. The plate was sealed with Scotch Pad (Qiagen). Incubation and Fluorescence Measurement Incubation at given temperature, shaking and measurement of the ThT fluorescence emission were done in a Fluoroskan Ascent FL fluorescence platereader or Varioskan platereader (Thermo Labsystems). The temperature was adjusted to 37° C. The orbital shaking was adjusted to 960 rpm with an amplitude of 1 mm in all the presented data. Fluorescence measurement was done using excitation through a 444 nm filter and measurement of emission through a 485 nm filter. Each run was initiated by incubating the plate at the assay temperature for 10 min. The plate was measured every 20 minutes for a desired period of time. Between each measurement, the plate was shaken and heated as described. Data Handling The measurement points were saved in Microsoft Excel format for further processing and curve drawing and fitting was performed using GraphPad Prism. The background emission from ThT in the absence of fibrils was negligible. The data points are typically a mean of four or eight samples and shown with standard deviation error bars. Only data obtained in the same experiment (i.e. samples on the same plate) are presented in the same graph ensuring a relative measure of fibrillation between experiments. The data set may be fitted to Eq. […] However, since full sigmodial curves in this case are not always achieved during the measurement time, the degree of fibrillation is expressed as ThT fluorescence tabulated as the mean of the samples and shown with the standard deviation at various time points. Measurement of Initial and Final Concentrations The polypeptide concentration in each of the tested formulations were measured both before application in the ThT fibrillation assay (“Initial”) and after completion of the ThT fibrillation (“After ThT assay”). Concentrations were determined by reverse HPLC methods using a pramlintide standard as a reference. Before measurement after completion 150 μl was collected from each of the replica and transferred to an Eppendorf tube. These were centrifuged at 30000 G for 40 mins. […]

Data set [2] concerns the target T1, human amylin receptor (membranes from Amylin 3(a)/CRE-luc cells) (Homo sapiens, UniProt O60896+P30988).
T1 construct: expressed in transfected cells
T1 sequence (P30988 25-474): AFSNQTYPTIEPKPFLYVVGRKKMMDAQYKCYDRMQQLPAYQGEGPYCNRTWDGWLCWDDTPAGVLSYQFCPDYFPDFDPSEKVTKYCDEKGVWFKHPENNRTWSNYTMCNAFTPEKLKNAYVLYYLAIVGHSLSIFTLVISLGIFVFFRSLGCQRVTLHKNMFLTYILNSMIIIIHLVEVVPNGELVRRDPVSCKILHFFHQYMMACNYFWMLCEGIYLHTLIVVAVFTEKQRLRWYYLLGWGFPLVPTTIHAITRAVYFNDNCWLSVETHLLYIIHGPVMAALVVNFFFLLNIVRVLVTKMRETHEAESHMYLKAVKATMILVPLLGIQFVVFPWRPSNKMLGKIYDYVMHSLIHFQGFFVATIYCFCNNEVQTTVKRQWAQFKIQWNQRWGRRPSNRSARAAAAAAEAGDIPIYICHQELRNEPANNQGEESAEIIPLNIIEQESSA
T1 sequence (O60896 24-148 partner): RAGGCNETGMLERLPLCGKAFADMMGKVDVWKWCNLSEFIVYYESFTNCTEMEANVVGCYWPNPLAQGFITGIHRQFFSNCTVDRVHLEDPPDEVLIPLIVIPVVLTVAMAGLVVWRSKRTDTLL
Nature of the data set: ASSAY (V) binding to the human amylin receptor (SPA, 125I-rat amylin).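 Further: competition binding of cell membranes (35 ng/µL) mixed with SPA beads in 384-well plates at 40 µL total volume, read by scintillation counting.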

Data set [3] concerns the target T2, human amylin 3(a) receptor (human calcitonin receptor + RAMP-3) in BHK570 cells (Homo sapiens, UniProt O60896+P30988).
T2 construct: expressed in transfected cells
Nature of the data set: ASSAY (II)a functional assay, human amylin receptor (CRE luciferase). It counts as cell-based. The text has this:
1. Luciferase Assay Outline
Activation of calcitonin and amylin (coexpression of calcitonin receptor and receptor activity modifying proteins (RAMP)) receptors lead to increased intracellular concentrations of cAMP. Consequently, transcription is activated by promoters containing multiple copies of the cAMP response element (CRE). It is thus possible to measure amylin activity by the use of a CRE luciferase reporter gene introduced into BHK cells also expressing calcitonin or amylin receptors.
2. Construction of Calcitonin (a)- and Amylin 3(a)-Receptor/CRE-Luc Cell Line.
The cell line was further transfected with RAMP-3, using standard methods. This turns the calcitonin receptor into an amylin 3(a) receptor. Methotrexate, Neomycin, and Hygromycin are selection markers for luciferase, the calcitonin receptor, and RAMP-3, respectively.
To perform activity assays, BHK calcitonin (a) receptor- or amylin 3(a)-receptor/CRE-luc cells were seeded in white 96 well culture plates at a density of about 20.000 cells/well. […] After incubation overnight at 37° C. and 5% CO2, the growth medium was replaced by 50 μl/well assay medium (DMEM (without phenol red), Glutamax™, 10% FBS, and 10 mM Hepes, pH 7.4). Further, 50 μl/well of standard or sample in assay buffer were added. After 3 hours incubation at 37° C. and 5% CO2, the assay medium with standard or sample were removed and replaced by 100 μl/well PBS. Further, 100 μl/well LucLite™ was added. The plates were sealed and incubated at room temperature for 30 minutes. Finally, luminescence was measured on a TopCounter (Packard) in SPC (single photon counting) mode.

Data set [4] is described as follows: ASSAY (IV) determination of solubility. The format is physicochemical. The method, then: Assay (IV)—Determination of Solubility
The polypeptide was dissolved in water at −500 nmol/ml and mixed 1:1 with a series of buffers (100 mM glycylglycine pH 3.0, 100 mM glycylglycine pH 4.0, 100 mM glycylglycine pH 5.0, 100 mM bistrispropane pH 6.0, 100 mM bistrispropane pH 6.5, 100 mM bistrispropane pH 7.0, 100 mM bistrispropane pH 7.5, 100 mM bistrispropane pH 8.0). After 18 hours at room temperature the samples were centrifuged and the polypeptide concentration determined by UPLC.

[5] abbreviates: Table 5, selectivity, hCTR bind IC50 / hAmylin-R bind IC50.
[6] abbreviates: Table 7, human binding selectivity, included for comparison.
Setting [7] is: hCTR funct. EC50 divided by hAmylin-R funct. EC50.
Where [8] appears, read: hCTR funct. EC50 over hAmylin-R funct. EC50.
Setting [9] is: human functional selectivity: hCTR funct. EC50 / hAmylin-R funct. EC50.
Where [10] appears, read: bistrispropane buffer, pH 6.5, read-out: Solubility pH 6.5 Concentration.
[11] abbreviates: bistrispropane buffer, pH 7.5, read-out: Solubility pH 7.5 Concentration.
Setting [12] is: bistrispropane buffer, pH 6.0, read-out: Solubility pH 6.0 Concentration.
[13] abbreviates: bistrispropane buffer, pH 7.0, read-out: Solubility pH 7.0 Concentration.
The mark [14] stands for this setting: bistrispropane buffer, pH 8.0, read-out: Solubility pH 8.0 Concentration.
The mark [15] stands for this setting: glycylglycine buffer, pH 3.0, read-out: Solubility pH 3.0 Concentration.
Where [16] appears, read: glycylglycine buffer, pH 4.0, read-out: Solubility pH 4.0 Concentration.
Setting [17] is: glycylglycine buffer, pH 5.0, read-out: Solubility pH 5.0 Concentration.

Consider `CC[C@H](C)[C@H](NC(=O)[C@H](C)NC(=O)CNC(=O)[C@H](Cc1ccccc1)NC(=O)[C@H](CC(N)=O)NC(=O)[C@@H]1CCCN1C(=O)[C@H](CO)NC(=O)[C@H](CO)NC(=O)[C@H](Cc1c[nH]cn1)NC(=O)[C@H](CCCNC(=N)N)NC(=O)[C@H](CC(C)C)NC(=O)[C@H](Cc1ccccc1)NC(=O)[C@H](CCC(=O)O)NC(=O)[C@H](C)NC(=O)[C@H](CC(C)C)NC(=O)[C@H](CCCNC(=N)N)NC(=O)[C@H](CCC(N)=O)NC(=O)[C@@H](NC(=O)[C@H](C)NC(=O)[C@@H]1CSSC[C@H](NC(=O)[C@H](CCCCN)NC(=O)CC[C@H](NC(=O)CC[C@H](NC(=O)CCCCCCCCCCCCCCCCCCC(=O)O)C(=O)O)C(=O)O)C(=O)N[C@@H](CC(N)=O)C(=O)N[C@@H]([C@@H](C)O)C(=O)N[C@@H](C)C(=O)N[C@@H]([C@@H](C)O)C(=O)N1)[C@@H](C)O)C(=O)N1CCC[C@H]1C(=O)N[C@@H](CO)C(=O)N[C@@H](CO)C(=O)N[C@H](C(=O)N[C@@H](CC(N)=O)C(=O)N[C@H](C(=O)NCC(=O)N[C@@H](CO)C(=O)N[C@@H](CC(N)=O)C(=O)N[C@H](C(=O)N1CCC[C@H]1C(N)=O)[C@@H](C)O)C(C)C)[C@@H](C)O` [Example 14] ({C20 diacid-γGlu-γGlu}-KCNTATCATQRLAEFLRHSSPNFGAIPSSTNVGSNTP-NH2; disulfide 2-7), for which the “ThT pH 4.0 lag time (h)” value in data set [1] turned out to be 45 h. The “Ratio hCT/hAmylin binding” value in data set [2] (setting [5]) and in data set [2] (setting [6]) was 2.2 throughout. Besides, the “Ratio hCT/hAmylin funct.” value in data set [3] (hCTR funct. EC50 / hAmylin-R funct. EC50), in data set [3] (setting [7]), in data set [3] (setting [8]) and in data set [3] (setting [9]) was 1.6 in each case. The solubility at 18 h in data set [4] (setting [10]), in data set [4] (setting [11]), in data set [4] (setting [12]), in data set [4] (setting [13]), in data set [4] (setting [14]) and in data set [4] (setting [15]) was not below 200 µM in each case. Moreover, the solubility at 18 h in data set [4] (setting [16]) and in data set [4] (setting [17]) was not below 200 µM in each case.
With `CC[C@H](C)[C@H](NC(=O)[C@H](C)NC(=O)CNC(=O)[C@H](Cc1ccccc1)NC(=O)[C@H](CC(N)=O)NC(=O)[C@@H]1CCCN1C(=O)[C@H](CO)NC(=O)[C@H](CO)NC(=O)[C@H](Cc1c[nH]cn1)NC(=O)[C@H](CCCNC(=N)N)NC(=O)[C@H](CC(C)C)NC(=O)[C@H](Cc1ccccc1)NC(=O)[C@H](CCC(=O)O)NC(=O)[C@H](C)NC(=O)[C@H](CC(C)C)NC(=O)[C@H](CCCNC(=N)N)NC(=O)[C@H](CCC(N)=O)NC(=O)[C@@H](NC(=O)[C@H](C)NC(=O)[C@@H]1CSSC[C@H](NC(=O)[C@H](CCCCN)NC(=O)CC[C@H](NC(=O)CCCCCCCCCCCCCCCCCCC(=O)O)C(=O)O)C(=O)N[C@@H](CC(N)=O)C(=O)N[C@@H]([C@@H](C)O)C(=O)N[C@@H](C)C(=O)N[C@@H]([C@@H](C)O)C(=O)N1)[C@@H](C)O)C(=O)N1CCC[C@H]1C(=O)N[C@@H](CO)C(=O)N[C@@H](CO)C(=O)N[C@H](C(=O)N[C@@H](CC(N)=O)C(=O)N[C@H](C(=O)NCC(=O)N[C@@H](CO)C(=O)N[C@@H](CC(N)=O)C(=O)N[C@H](C(=O)N[C@@H](Cc1ccc(O)cc1)C(N)=O)[C@@H](C)O)C(C)C)[C@@H](C)O` [Example 9], the “ThT pH 4.0 lag time (h)” value in data set [1] worked out at 19 h. Besides, the “Ratio hCT/hAmylin binding” value in data set [2] (setting [5]) and in data set [2] (setting [6]) was 8.0 each time. In addition, the “Ratio hCT/hAmylin funct.” value in data set [3] (setting [7]), in data set [3] (setting [8]) and in data set [3] (setting [9]) was 7.4 throughout. For the same compound, the solubility at 18 h in data set [4] (setting [10]), in data set [4] (setting [11]), in data set [4] (setting [12]), in data set [4] (setting [13]), in data set [4] (setting [14]) and in data set [4] (setting [15]) was not below 200 µM each time. Also, the solubility at 18 h in data set [4] (setting [16]) and in data set [4] (setting [17]) was not below 200 µM in each case.
